In PMC8267945, “Plumbagin, a Natural Product with Potent Anticancer Activities, Binds to and Inhibits Dihydroorotase, a Key Enzyme in Pyrimidine Biosynthesis” (International Journal of Molecular Sciences, 2021):
Entries after “also recorded” stand apart in the source; their conditions may differ.

Tests used:
huDHOase = target: T1, huDHOase (Homo sapiens, UniProt P27708); experiment: rapid spectrophotometric DHOase enzyme assay (hydrolysis of DHO); format: biochemical; details: for decrease of the activity of huDHOase: 200 μM compound in the standard assay; for inhibition of huDHOase (in words): 200 μM for the compounds of Figure 2, AZT concentration not given
T1 construct: huDHOase1456-1846-NdeI-N; made in house; host or cells: E. coli BL21(DE3)
T1 sequence (P27708 1456-1846): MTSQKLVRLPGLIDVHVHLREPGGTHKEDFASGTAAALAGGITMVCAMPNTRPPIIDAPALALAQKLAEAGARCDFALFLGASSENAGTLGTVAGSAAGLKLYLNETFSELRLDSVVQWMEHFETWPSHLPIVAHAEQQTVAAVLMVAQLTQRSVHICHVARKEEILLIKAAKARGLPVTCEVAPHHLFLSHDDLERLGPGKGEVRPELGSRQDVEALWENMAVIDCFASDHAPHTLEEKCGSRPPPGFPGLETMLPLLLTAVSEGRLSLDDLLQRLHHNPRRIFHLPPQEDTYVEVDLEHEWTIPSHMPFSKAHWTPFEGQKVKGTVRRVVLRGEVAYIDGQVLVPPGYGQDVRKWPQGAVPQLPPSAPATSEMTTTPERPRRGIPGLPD
Description: A rapid spectrophotometric assay was used to determine the activity of DHOase. Briefly, the hydrolysis of DHO was measured at 25 °C as the decrease in absorbance at 230 nm. The purified DHOase was added to a 2 mL solution containing 0.5 mM DHO and 100 mM Tris–HCl at pH 8.0 to start the reaction. […] The hydrolysis of DHO was monitored using a UV/Vis spectrophotometer (Hitachi U 3300; Hitachi High-Technologies, Tokyo, Japan). A unit of activity was defined as the amount of enzyme catalyzing the hydrolysis of 1 μmol DHO/min, and the specific activity was expressed in terms of units of activity per mg of enzyme. The kinetic parameters Km and Vmax were determined from a nonlinear plot by fitting the hydrolyzing rate from individual experiments to the Michaelis–Menten equation (Enzyme Kinetics module of Sigma-Plot; Systat Software, Chicago, IL, USA).

ScDHOase [1] = target: T2, ScDHOase (Saccharomyces cerevisiae, UniProt P20051); experiment: fluorescence quenching binding assay; details: for quenching of the intrinsic fluorescence of ScDHOase: 200 μM compound, 324 nm, excitation 280 nm
T2 construct: made in house; host or cells: E. coli BL21(DE3)
T2 sequence (P20051 whole entry): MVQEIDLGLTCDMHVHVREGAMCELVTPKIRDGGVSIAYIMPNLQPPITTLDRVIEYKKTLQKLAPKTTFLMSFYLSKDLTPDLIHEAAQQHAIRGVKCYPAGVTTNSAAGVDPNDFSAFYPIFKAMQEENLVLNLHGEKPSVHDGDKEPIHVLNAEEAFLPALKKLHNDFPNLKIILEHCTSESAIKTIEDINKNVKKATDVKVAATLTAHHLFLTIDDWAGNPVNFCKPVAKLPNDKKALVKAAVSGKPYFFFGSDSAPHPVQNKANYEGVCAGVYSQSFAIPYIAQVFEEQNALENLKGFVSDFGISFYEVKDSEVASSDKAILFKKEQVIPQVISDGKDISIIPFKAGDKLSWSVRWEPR
Description: Figure 7 The data used to calculate the Kd values of various DHOases. (A) The fluorescence emission spectra of ScDHOase with PLU of different concentrations (0–200 μM; 0, 10, 20, 50, 75, 100, 125, 150, 175, and 200 μM). The decrease in intrinsic fluorescence of protein was measured at 324 nm upon excitation at 280 nm with a spectrofluorometer. […] (B) The fluorescence emission spectra of huDHOase with PLU of different concentrations (0–200 μM). (C) The fluorescence emission spectra of StDHOase with PLU of different concentrations. (D) The fluorescence emission spectra of ScDHOase–R18A with PLU of different concentrations. (E) The fluorescence emission spectra of ScDHOase–T106A with PLU of different concentrations. […] (F) An aliquot amount of PLU was added to the enzyme solution to determine the Kd. The Kd was obtained by the following equation: ΔF = ΔFmax − Kd(ΔF/[PLU]). Data points are an average of 2–3 determinations within a 10% error.
The decrease in the intrinsic fluorescence of DHOase was measured with a spectrofluorometer (Hitachi F-2700; Hitachi High-Technologies, Japan). The Kd was obtained using the following equation: ΔF = ΔFmax − Kd(ΔF/[PLU]).
The Kd value of the purified DHOase was determined using the fluorescence quenching method as previously described for DHOase, DHPase, and DnaB helicase. Briefly, an aliquot of the compound was added into the solution containing DHOase (1 μM) and 50 mM HEPES at pH 7.0. The decrease in the intrinsic fluorescence of DHOase was measured at 324 nm upon excitation at 280 nm and 25 °C with a spectrofluorometer (Hitachi F-2700; Hitachi High-Technologies, Japan). The Kd was obtained using the following equation: ΔF = ΔFmax − Kd(ΔF/[PLU]).

in vitro = format: cell-based, mouse; details: mouse
Description: The 4T1 cells (1 × 10^4) were incubated with PLU in a 100 μL volume. After 24 h, the anticancer potentiality was estimated.

4T1 cells [2] = experiment: wound-healing assay; format: cell-based, mouse; details: 5-FU 5 μM
Description: The wound-healing assay was performed to study whether PLU can inhibit 4T1 cell migration. Briefly, 4T1 cells were seeded in 24-well plates, incubated in serum-reduced medium for 6 h, wounded in a line across the well with a 200 μL pipette tip, and washed twice with the serum-reduced medium. After different treatments, cells were incubated for 24 h to allow migration.

4T1 cells [3] = experiment: chromatin condensation assay (Hoechst staining); format: cell-based, mouse; details: 5-FU 5 μM
Description: The apoptosis in 4T1 cells was assayed with Hoechst 33342 staining. The 4T1 cells were seeded in 6-well plates at a density of 5 × 10^5 cells per well in a volume of […] of culture medium. Cells were allowed to adhere for 16 h. After different treatments, cells were incubated for an additional 24 h, washed with PBS, stained with the Hoechst dye (1 μg·mL^−1) in the dark at RT for 10 min, and imaged using an inverted fluorescence microscope (Axiovert 200 M; Zeiss Axioplam, Oberkochen, Germany) at excitation and emission wavelengths (λem) of 360 and 460 nm, respectively. The apoptotic index was calculated as follows: apoptotic index = apoptotic cell number/(apoptotic cell number + nonapoptotic cell number).

4T1 cells [4] = experiment: clonogenic formation assay; format: cell-based, mouse; details: 5-FU 5 μM
Description: A clonogenic formation assay was used to assess the 4T1 cell growth to study whether the PLU can inhibit 4T1 cell proliferation. Briefly, 4T1 cells were seeded at a density of 10^3 cells per well into 6-well plates and incubated overnight for attachment. After different treatments, plates were incubated for 5–7 days to allow clonogenic growth. After washing with PBS, colonies were fixed with methanol and stained with 0.5% crystal violet for 20 min, and the number of colonies was counted under a light microscope.

ScDHOase [5] = target: T2, ScDHOase; details: cited from earlier work
Plasmodium falciparum = test system: Plasmodium falciparum; design: method as in PMID 2675756; details: read-out: concentration giving 50% growth inhibition of parasites; cited from earlier work

Row | SMILES | quenching of the intrinsic fluorescence of ScDHOase (ScDHOase [1]) [%] | inhibition of huDHOase (in words) (huDHOase) | also measured
1 | O=C(O)CC(O)C(=O)O (stereo not shown) [malate] | 10.9 | – | decrease of the activity of huDHOase (huDHOase): 6%
2 | O=c1[nH]cc(F)c(=O)[nH]1 [5-FU, 5-fluorouracil] | – | did not inhibit the activity of huDHOase; also recorded: cannot inhibit DHOase | mortality at 24 h, 5 μM (in vitro): 27%; Migration rate (4T1 cells [2]): 65%; Apoptotic rate (4T1 cells [3]): 26%; Colony count (4T1 cells [4]): 54%; λmax of ScDHOase emission (red shift) (ScDHOase [5]): from 324 to 335.5
3 | CC(=O)NCCc1cnc[nH]1 [N-ω-acetylhistamine] | 2.8 | None of these compounds decreased the activity of huDHOase | –
4 | CSc1nnn[nH]1 [5-methylthio-1H-tetrazole] | 2.3 | None of these compounds decreased the activity of huDHOase | –
5 | Nc1nc[nH]n1 [3-amino-1,2,4-triazole] | 2.8 | None of these compounds decreased the activity of huDHOase | –
6 | O=C(O)c1cc(=O)[nH]c(=O)[nH]1 [orotic acid] | 65.9 | – | Kd (ScDHOase [1]): 198.3 ± 1.2 µM
7 | N=C1NC(=O)CC(C(=O)O)S1 (stereo not shown) [ITCA, 2-imino-4-oxo-1,3-thiazinane-6-carboxylic acid] | 15.6 | – | decrease of the activity of huDHOase (huDHOase): 12%
8 | Nc1n[nH]c(N)n1 [3,5-diamino-1,2,4-triazole] | 3.9 | None of these compounds decreased the activity of huDHOase | –
9 | O=C(O)CC1NC(=O)NC1=O (stereo not shown) [5-HAA, 5-hydantoinacetic acid] | 1.5 | did not inhibit huDHOase | –
10 | O=C(O)c1[nH]c(=O)[nH]c(=O)c1F [5-FOA, 5-fluoroorotate] | 78.2 | – | decrease of the activity of huDHOase (huDHOase): 26%; IC50 (Plasmodium falciparum): 0.006 µM
11 | Cc1cn([C@H]2C[C@H](N=[N+]=[N-])[C@@H](CO)O2)c(=O)[nH]c1=O [AZT] | – | did not inhibit the activity of huDHOase | –
12 | Nc1c[nH]c(=O)[nH]c1=O [5-AU, 5-aminouracil] | – | did not inhibit the activity of huDHOase | λmax of ScDHOase emission (red shift) (ScDHOase [5]): from 324 to 335.5
13 | CC(=O)NO [Acetohydroxamate] | 2.5 | – | –
14 | O=C1CCC(C(=O)O)NC(=O)N1 (stereo not shown) [DDCA, 2,7-dioxo-1,3-diazepane-4-carboxylic acid] | 3.0 | did not inhibit huDHOase | –
